# Measured values reported in patent US8802700B2 (Vertex Pharmaceuticals Incorporated, priority 2010, dated 2014).
# Molecular target: T1, ΔF508-CFTR (Homo sapiens, UniProt P13569, DEL508-508)
# T1 construct: expressed in transfected cells
# Experiment: Membrane potential optical assay (FRET voltage-sensor dyes, VIPR), identification of potentiator compounds
# Format: cell-based
# Conditions: Table 3; assay not given
# How it was run: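 NIH3T3 mouse fibroblasts stably expressing ΔF508-CFTR, cultured 24 h at 27 °C, were loaded with FRET voltage dyes CC2-DMPE and DiSBAC2(3). Double-addition format: first addition of Cl⁻-free (gluconate) medium with or without compound; membrane-potential change read as fluorescence on VIPR II.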
# T1 sequence (P13569 with tags, fused parts or gaps DEL508-508): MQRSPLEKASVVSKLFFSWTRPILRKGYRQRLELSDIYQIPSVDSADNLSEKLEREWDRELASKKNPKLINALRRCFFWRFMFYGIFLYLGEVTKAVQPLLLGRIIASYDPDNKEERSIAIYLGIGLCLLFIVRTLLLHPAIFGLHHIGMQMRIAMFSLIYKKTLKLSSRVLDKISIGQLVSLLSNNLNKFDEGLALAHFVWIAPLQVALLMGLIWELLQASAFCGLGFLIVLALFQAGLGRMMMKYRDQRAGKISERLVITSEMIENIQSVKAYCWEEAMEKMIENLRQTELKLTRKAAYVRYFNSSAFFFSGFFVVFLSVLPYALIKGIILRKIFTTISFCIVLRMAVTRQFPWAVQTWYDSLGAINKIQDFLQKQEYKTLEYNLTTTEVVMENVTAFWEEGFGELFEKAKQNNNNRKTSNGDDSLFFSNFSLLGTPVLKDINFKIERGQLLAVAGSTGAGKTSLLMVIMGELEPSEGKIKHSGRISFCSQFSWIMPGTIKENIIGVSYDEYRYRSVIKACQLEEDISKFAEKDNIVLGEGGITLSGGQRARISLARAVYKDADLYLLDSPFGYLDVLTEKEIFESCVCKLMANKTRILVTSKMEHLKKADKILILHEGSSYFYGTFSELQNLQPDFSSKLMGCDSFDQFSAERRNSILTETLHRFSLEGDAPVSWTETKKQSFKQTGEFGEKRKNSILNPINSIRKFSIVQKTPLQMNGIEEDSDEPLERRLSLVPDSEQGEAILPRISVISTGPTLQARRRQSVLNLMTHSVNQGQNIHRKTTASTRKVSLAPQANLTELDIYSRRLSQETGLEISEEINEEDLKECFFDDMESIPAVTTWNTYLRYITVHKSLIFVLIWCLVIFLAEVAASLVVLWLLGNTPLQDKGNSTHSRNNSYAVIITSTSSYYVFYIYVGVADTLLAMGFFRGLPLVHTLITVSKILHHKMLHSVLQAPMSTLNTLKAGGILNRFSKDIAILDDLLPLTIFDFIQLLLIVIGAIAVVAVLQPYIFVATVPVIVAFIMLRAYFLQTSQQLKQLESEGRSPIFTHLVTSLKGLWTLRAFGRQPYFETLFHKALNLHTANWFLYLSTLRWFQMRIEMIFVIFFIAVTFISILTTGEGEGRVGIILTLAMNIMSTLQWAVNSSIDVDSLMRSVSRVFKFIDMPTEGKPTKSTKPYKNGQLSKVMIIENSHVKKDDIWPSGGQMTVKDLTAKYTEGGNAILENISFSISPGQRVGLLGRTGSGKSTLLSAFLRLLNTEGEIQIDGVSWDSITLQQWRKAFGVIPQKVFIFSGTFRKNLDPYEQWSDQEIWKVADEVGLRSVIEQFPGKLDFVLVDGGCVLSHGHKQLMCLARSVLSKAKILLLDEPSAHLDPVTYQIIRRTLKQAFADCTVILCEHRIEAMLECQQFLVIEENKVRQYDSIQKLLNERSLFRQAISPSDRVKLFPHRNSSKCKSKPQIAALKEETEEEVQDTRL
row,EC50,SMILES
1,< 10 µM,"CCc1cccc(C(C)C)c1NC(=O)c1c[nH]c2ccccc2c1=O [Compound 314, N-(2-ethyl-6-isopropyl-phenyl)-4-oxo-1H-quinoline-3-carboxamide]"
2,< 10 µM,"Nc1cc(Cl)cc(NC(=O)c2c[nH]c3ccccc3c2=O)c1 [Compound 131, N-(3-amino-5-chloro-phenyl)-4-oxo-1H-quinoline-3-carboxamide]"

# Same assay, conditions: Table 3; assay not given; read-out: % Activity (% Efficacy, relative efficacy)
row,Emax,SMILES
1,25 to 100%,"CC(C)c1ccc(NC(=O)c2c[nH]c3ccccc3c2=O)cc1N(C)C [Compound 117, N-(3-dimethylamino-4-isopropyl-phenyl)-4-oxo-1H-quinoline-3-carboxamide]"
2,25 to 100%,"CSc1ccc(-c2ccccc2NC(=O)c2c[nH]c3ccccc3c2=O)cc1 [Compound 223, N-[2-(4-methylsulfanylphenyl)phenyl]-4-oxo-1H-quinoline-3-carboxamide]"
3,25 to 100%,"Cc1cccc2[nH]cc(C(=O)Nc3ccc(N4CCC[C@@H]4C)cc3C(F)(F)F)c(=O)c12 [Compound 511, (S)-5-methyl-N-(4-(2-methylpyrrolidin-1-yl)-2-(trifluoromethyl)phenyl)-4-oxo-1,4-dihydroquinoline-3-carboxamide]"
4,25 to 100%,"CC(C)(C)c1cc2cc[nH]c2cc1NC(=O)c1c[nH]c2cccc(F)c2c1=O [Compound 656, 5-fluoro-4-oxo-N-(5-tert-butyl-1H-indol-6-yl)-1H-quinoline-3-carboxamide]"
5,< 25%,"CCC(=O)Nc1cccc(NC(=O)c2c[nH]c3ccccc3c2=O)c1 [Compound 81, 4-oxo-N-(3-propionylaminophenyl)-1H-quinoline-3-carboxamide]"
6,25 to 100%,"O=C(Nc1ccc(S(=O)(=O)N2CCOCC2)cc1)c1c[nH]c2ccccc2c1=O [Compound 276, N-(4-morpholinosulfonylphenyl)-4-oxo-1H-quinoline-3-carboxamide]"
7,25 to 100%,"O=C(Nc1ccccc1-c1cccc(F)c1F)c1c[nH]c2ccccc2c1=O [Compound 285, N-[2-(2,3-difluorophenyl)phenyl]-4-oxo-1H-quinoline-3-carboxamide]"
8,25 to 100%,"Cc1cccc2[nH]cc(C(=O)Nc3ccc(N4CC[C@H](F)C4)cc3C(F)(F)F)c(=O)c12 [Compound 626, (S)-N-(4-(3-fluoropyrrolidin-1-yl)-2-(trifluoromethyl)phenyl)-5-methyl-4-oxo-1,4-dihydroquinoline-3-carboxamide]"
9,25 to 100%,"O=C(Nc1csc(C(F)(F)F)c1-c1ccccc1)c1c[nH]c2ccccc2c1=O [Compound 708, 4-oxo-N-[4-phenyl-5-(trifluoromethyl)-3-thienyl]-1H-quinoline-3-carboxamide]"
10,25 to 100%,"CC(C)n1cc(C(=O)Nc2ccccc2)c(=O)c2ccccc21 [Compound 29, 1-isopropyl-4-oxo-N-phenyl-1H-quinoline-3-carboxamide]"
11,25 to 100%,"O=C(Nc1cc2[nH]ccc2cc1F)c1c[nH]c2ccccc2c1=O [Compound 77, N-(5-fluoro-1H-indol-6-yl)-4-oxo-1H-quinoline-3-carboxamide]"
12,25 to 100%,"O=C(Nc1cc(Cl)ccc1Oc1ccccc1)c1c[nH]c2ccccc2c1=O [Compound 292, N-(5-chloro-2-phenoxy-phenyl)-4-oxo-1H-quinoline-3-carboxamide]"
13,25 to 100%,"O=C(Nc1ccc(C(F)(F)F)cc1)c1c[nH]c2ccccc2c1=O [Compound 236, 4-oxo-N-[4-(trifluoromethyl)phenyl]-1H-quinoline-3-carboxamide]"
14,25 to 100%,"CC(C)(C)c1cc(C(C)(C)C)c(NC(=O)c2c[nH]c3cc(OC(F)(F)F)ccc3c2=O)cc1O [Compound 694, N-(5-hydroxy-2,4-ditert-butyl-phenyl)-4-oxo-7-(trifluoromethoxy)-1H-quinoline-3-carboxamide]"
15,25 to 100%,"O=C(Nc1ccccc1Oc1ccccc1)c1c[nH]c2ccccc2c1=O [Compound 413, 4-oxo-N-(2-phenoxyphenyl)-1H-quinoline-3-carboxamide]"
16,25 to 100%,"CC(C)(C)OC(=O)N1CCc2c(cccc2NC(=O)c2c[nH]c3ccccc3c2=O)C1 [Compound 427, 5-[(4-oxo-1H-quinolin-3-yl)carbonylamino]-1,2,3,4-tetrahydroisoquinoline-2-carboxylic acid tert-butyl ester]"
17,25 to 100%,"CCc1cccc(C(C)C)c1NC(=O)c1c[nH]c2ccccc2c1=O [Compound 314, N-(2-ethyl-6-isopropyl-phenyl)-4-oxo-1H-quinoline-3-carboxamide]"
18,25 to 100%,"Cc1ccccc1Oc1ccccc1NC(=O)c1c[nH]c2ccccc2c1=O [Compound 20, N-[2-(2-methylphenoxy)phenyl]-4-oxo-1H-quinoline-3-carboxamide]"
19,25 to 100%,"O=C(Nc1cc2[nH]ccc2cc1Cl)c1c[nH]c2ccccc2c1=O [Compound 32, N-(5-chloro-1H-indol-6-yl)-4-oxo-1H-quinoline-3-carboxamide]"
20,25 to 100%,"CC1(c2cc(F)c(NC(=O)c3cnc4ccccc4c3O)cc2O)CCCCCCC1 [Compound 403, N-[2-fluoro-5-hydroxy-4-(1-methylcyclooctyl)-phenyl]-4-hydroxy-quinoline-3-carboxamide]"
21,25 to 100%,"CC(C)(C)c1cc2cc[nH]c2cc1NC(=O)c1c[nH]c2cc(C#N)ccc2c1=O [Compound 558, 7-cyano-4-oxo-N-(5-tert-butyl-1H-indol-6-yl)-1H-quinoline-3-carboxamide]"

row,Emax,SMILES
1,25 to 100%,"CC(=O)Nc1cc(NC(=O)c2c[nH]c3ccccc3c2=O)ccc1C [Compound 248, N-(3-Acetylamino-4-methyl-phenyl)-4-oxo-1H-quinoline-3-carboxamide]"
2,25 to 100%,"N#Cc1ccccc1NC(=O)c1c[nH]c2ccccc2c1=O [Compound 95, N-(2-cyanophenyl)-4-oxo-1H-quinoline-3-carboxamide]"
3,25 to 100%,"CCc1ccc(NC(=O)c2c[nH]c3ccccc3c2=O)cc1N [Compound 8, N-(3-amino-4-ethyl-phenyl)-4-oxo-1H-quinoline-3-carboxamide]"
4,25 to 100%,"Cc1cccc2[nH]cc(C(=O)Nc3ccc(N4CC[C@@H](F)C4)cc3C(F)(F)F)c(=O)c12 [Compound 541, (R)-N-(4-(3-fluoropyrrolidin-1-yl)-2-(trifluoromethyl)phenyl)-5-methyl-4-oxo-1,4-dihydroquinoline-3-carboxamide]"
5,25 to 100%,"CCCOc1ccc(NC(=O)c2c[nH]c3ccccc3c2=O)cc1N [Compound 368, N-(3-amino-4-propoxy-phenyl)-4-oxo-1H-quinoline-3-carboxamide]"
6,25 to 100%,"CC(O)c1ccc(NC(=O)c2c[nH]c3ccccc3c2=O)cc1 (centres unmarked) [Compound 450, N-[4-(1-hydroxyethyl)phenyl]-4-oxo-1H-quinoline-3-carboxamide]"
7,25 to 100%,"CCN(CC)c1ccc(NC(=O)c2c[nH]c3ccccc3c2=O)c(C)c1 [Compound 82, N-(4-diethylamino-2-methyl-phenyl)-4-oxo-1H-quinoline-3-carboxamide]"
8,25 to 100%,"CC1(c2cc(F)c(NC(=O)c3c[nH]c4ccc(F)cc4c3=O)cc2O)CCCCC1 [Compound 218, 6-fluoro-N-[2-fluoro-5-hydroxy-4-(1-methylcyclohexyl)-phenyl]-4-oxo-1H-quinoline-3-carboxamide]"
9,25 to 100%,"O=C(Nc1cc(C(=O)O)c2cc[nH]c2c1)c1c[nH]c2ccccc2c1=O [Compound 711, 6-[(4-oxo-1H-quinolin-3-yl)carbonylamino]-1H-indole-4-carboxylic acid]"
10,25 to 100%,"Cc1ccc2[nH]cc(C(=O)Nc3cc(O)c(C4(C)CCCCC4)cc3F)c(=O)c2c1 [Compound 624, N-[2-fluoro-5-hydroxy-4-(1-methylcyclohexyl)-phenyl]-6-methyl-4-oxo-1H-quinoline-3-carboxamide]"
11,< 25%,"Cc1ccc(C#N)c(NC(=O)c2c[nH]c3ccccc3c2=O)c1 [Compound 89, N-(2-cyano-5-methyl-phenyl)-4-oxo-1H-quinoline-3-carboxamide]"
12,< 25%,"Cc1cccc2c(=O)c(C(=O)Nc3cc4[nH]ccc4cc3C(C)(C)C)c[nH]c12 [Compound 644, 8-methyl-4-oxo-N-(5-tert-butyl-1H-indol-6-yl)-1H-quinoline-3-carboxamide]"
13,25 to 100%,"CC(C)c1cc(C(F)(F)F)c(NC(=O)c2c[nH]c3ccccc3c2=O)cc1OCc1ccccc1 [Compound 570, N-[5-benzyloxy-4-isopropyl-2-(trifluoromethyl)phenyl]-4-oxo-1H-quinoline-3-carboxamide]"
14,25 to 100%,"CC(C)(C)c1ccc(NC(=O)c2c[nH]c3cccc(O)c3c2=O)cc1O [Compound 633, 5-hydroxy-N-(3-hydroxy-4-tert-butyl-phenyl)-4-oxo-1H-quinoline-3-carboxamide]"
15,25 to 100%,"O=C(Nc1ccccc1-c1cc(Cl)cc(Cl)c1)c1c[nH]c2ccccc2c1=O [Compound 367, N-[2-(3,5-dichlorophenyl)phenyl]-4-oxo-1H-quinoline-3-carboxamide]"
16,25 to 100%,"Nc1cc(Cl)cc(NC(=O)c2c[nH]c3ccccc3c2=O)c1 [Compound 131, N-(3-amino-5-chloro-phenyl)-4-oxo-1H-quinoline-3-carboxamide]"
17,> 100%,"COc1cc2c(=O)c(C(=O)Nc3cc4[nH]ccc4cc3C(C)(C)C)c[nH]c2cc1F [Compound 611, 7-fluoro-6-methoxy-4-oxo-N-(5-tert-butyl-1H-indol-6-yl)-1H-quinoline-3-carboxamide]"
18,25 to 100%,"CCc1cc(C(C)(C)C)c(O)cc1NC(=O)c1c[nH]c2cccc(O)c2c1=O [Compound 507, N-(2-ethyl-5-hydroxy-4-tert-butyl-phenyl)-5-hydroxy-4-oxo-1H-quinoline-3-carboxamide]"
19,25 to 100%,"CN(C)CCNC(=O)c1ccc(-c2cc3cc[nH]c3cc2NC(=O)c2c[nH]c3ccccc3c2=O)cc1 [Compound 347, N-[5-[4-(2-dimethylaminoethylcarbamoyl)phenyl]-1H-indol-6-yl]-4-oxo-1H-quinoline-3-carboxamide]"
20,25 to 100%,"O=C(Nc1ccc2cc[nH]c2c1)c1cnc2c(F)cc(F)cc2c1O [Compound 377, 6,8-difluoro-4-hydroxy-N-(1H-indol-6-yl)quinoline-3-carboxamide]"
21,25 to 100%,"O=C(Nc1ccc(N2CCC[C@H]2C(=O)O)cc1C(F)(F)F)c1c[nH]c2ccccc2c1=O [Compound 567, (S)-1-[4-[(4-oxo-1H-quinolin-3-yl)carbonylamino]-3-(trifluoromethyl)phenyl]pyrrolidine-2-carboxylic acid]"
